Measurements published in patent publication US8129369B2, “Antifungal compounds containing benzothiazinone, benzoxazinone or benzoxazolinone and process thereof” (Council of Scientific & Industrial Research;, priority 2008, dated 2012).
≈ marks a conversion by molar mass, not a printed value.

Tests used:
C. albicans ATCC 24433 = test: MIC by broth macro-dilution method, C. albicans ATCC 24433; assay type: cell-based, Candida albicans; settings: 48 hours; for MIC: Candida albicans, ATCC24433, RPMI 1640 with MOPS, MIC = concentration exhibiting 80% inhibition vs positive growth control
Protocol: (§1) The compounds of Formula 1 were tested for antifungal activity against various fungi including Candida albicans, Aspergillus niger and Fusarium proliferatum. In vitro evaluation of antifungal activity was performed by determining the minimum inhibitory concentration (MIC) following standard methods (CLSI: Reference method for broth dilution antifungal susceptibility testing of yeasts; Approved standard, second edition M27-A2, 2002; CLSI: Reference method for broth dilution antifungal susceptibility testing of filamentous fungi; Approved standard M38-A, 2002). Anti-fungal susceptibility testing of these anti-fungal compounds was done by broth dilution method using RPMI 1640 medium with MOPS buffer. Known anti-fungal agents like Fluconazole and Amphotericin-B were used as standards. End points were determined after 48 hours visually and by using spectrophotometer wherever necessary.
(§2) >16 μg/ml: The novel compounds of formula 1 are generally tested for concentration range from 0.03 μg/ml to the concentration till it was in solution (For e.g.: Back precipitation 128-32 μg/ml, Concentration for assay: 0.03 to 16 μg/ml).

A. niger ATCC 16404 = test: MIC by broth macro-dilution method, A. niger ATCC 16404; assay type: cell-based, Aspergillus niger; settings: 48 hours; for MIC: Aspergillus niger, ATCC16404, RPMI 1640 with MOPS, MIC = concentration exhibiting 80% inhibition vs positive growth control
Protocol: as §1, §2

[1] = tested on: F. proliferatum ATCC 10052; test: MIC by broth macro-dilution method, F. proliferatum ATCC 10052; assay type: cell-based, Fusarium proliferatum; settings: 48 hours; for MIC: Fusarium proliferatum, ATCC10052, RPMI 1640 with MOPS, MIC = concentration exhibiting 80% inhibition vs positive growth control
Protocol: as §1, §2

C. albicans ATCC24433 = test: MIC by broth micro-dilution method, C. albicans ATCC24433; assay type: cell-based, Candida albicans; settings: for MIC: Candida albicans, ATCC24433, MIC = concentration exhibiting 50% inhibition vs positive control
Protocol: as §1

C. albicans ATCC10231 = test: MIC by broth micro-dilution method, C. albicans ATCC10231; assay type: cell-based, Candida albicans; settings: for MIC: Candida albicans, ATCC10231, MIC = concentration exhibiting 50% inhibition vs positive control
Protocol: as §1

C. albicans ATCC2091 = test: MIC by broth micro-dilution method, C. albicans ATCC2091; assay type: cell-based, Candida albicans; settings: for MIC: Candida albicans, ATCC2091, MIC = concentration exhibiting 50% inhibition vs positive control
Protocol: as §1

C. albicans ATCC90028 = test: MIC by broth micro-dilution method, C. albicans ATCC90028; assay type: cell-based, Candida albicans; settings: for MIC: Candida albicans, ATCC90028, MIC = concentration exhibiting 50% inhibition vs positive control
Protocol: as §1

C. glabrata ATCC90030 = test: MIC by broth micro-dilution method, C. glabrata ATCC90030; assay type: cell-based; settings: for MIC: Nakaseomyces glabratus, ATCC90030, MIC = concentration exhibiting 50% inhibition vs positive control
Protocol: as §1

C. krusei ATCC6258 = test: MIC by broth micro-dilution method, C. krusei ATCC6258; assay type: cell-based; settings: for MIC: Pichia kudriavzevii, ATCC6258, MIC = concentration exhibiting 50% inhibition vs positive control
Protocol: as §1

C. tropicalis ATCC750 = test: MIC by broth micro-dilution method, C. tropicalis ATCC750; assay type: cell-based; settings: for MIC: Candida tropicalis, ATCC750, MIC = concentration exhibiting 50% inhibition vs positive control
Protocol: as §1

[2] = RPMI 1640 with MOPS, MIC = concentration exhibiting complete inhibition (Amphotericin B)
[3] = MIC = concentration exhibiting complete inhibition (Amphotericin B)

Row | Compound | MIC (C. albicans ATCC 24433) | MIC (A. niger ATCC 16404) | MIC [1] | also measured
1 | CC(=O)c1ccc2c(c1)N(CC(O)(Cn1cncn1)c1ccc(F)cc1F)C(=O)CO2 (stereo not shown) [Compound 1m, 6-Acetyl-4-[2-(2,4-difluorophenyl)-2-hydroxy-3-[1,2,4]-triazol-1-yl-propyl]-4H-benzo[1,4]oxazin-3-one] | > 64 µg/mL | > 64 µg/mL | > 64 µg/mL | –
2 | O=C1COc2ccc([N+](=O)[O-])cc2N1CC(O)(Cn1cncn1)c1ccc(F)cc1F (stereo not shown) [Compound 1l, 4-[2-(2,4-Difluorophenyl)-2-hydroxy-3-[1,2,4]triazol-1-yl-propyl]-6-nitro-4H-benzo[1,4]oxazin-3-one] | 32 µg/mL (≈ 74.2 µM) | > 32 µg/mL | > 32 µg/mL | –
3 | COc1ccc2c(c1)SCC(=O)N2CC(O)(Cn1cncn1)c1ccc(F)cc1 (stereo not shown) [Compound 1h, 4-[2-(4-Fluorophenyl)-2-hydroxy-3-[1,2,4]triazol-1-yl-propyl]-7-methoxy-4H-benzo[1,4]thiazin-3-one] | 8 µg/mL (≈ 19.3 µM) | > 16 µg/mL | > 16 µg/mL | –
4 | O=C1CSc2cc(Br)ccc2N1CC(O)(Cn1cncn1)c1ccc(F)cc1F (stereo not shown) [Compound 1c, 7-Bromo-4-[2-(2,4-difluorophenyl)-2-hydroxy-3-[1,2,4]triazol-1-yl-propyl]-4H-benzo[1,4]thiazin-3-one] | 1 µg/mL (≈ 2.08 µM) | > 16 µg/mL | > 16 µg/mL | –
5 | O=C1COc2ccc(Cl)cc2N1CC(O)(Cn1cncn1)c1ccc(F)cc1F (stereo not shown) [Compound 1j, 6-Chloro-4-[2-(2,4-difluorophenyl)-2-hydroxy-3-[1,2,4]triazol-1-yl-propyl]-4H-benzo[1,4]oxazin-3-one] | 8 µg/mL (≈ 19 µM) | > 32 µg/mL | > 32 µg/mL | –
6 | Cc1ccc2c(c1)SCC(=O)N2CC(O)(Cn1cncn1)c1ccc(F)cc1F (stereo not shown) [Compound 1e, 4-[2-(2,4-Difluorophenyl)-2-hydroxy-3-[1,2,4]triazol-1-yl-propyl]-7-methyl-4H-benzo[1,4]thiazin-3-one] | 2 µg/mL (≈ 4.8 µM) | > 32 µg/mL | > 32 µg/mL | –
7 | CC(=O)c1ccc2c(c1)N(CC(O)(Cn1cncn1)c1ccc(Br)cc1)C(=O)CO2 (stereo not shown) [Compound 1p, 6-Acetyl-4-[2-(4-bromophenyl)-2-hydroxy-3-[1,2,4]triazol-1-yl-propyl]-4H-benzo[1,4]oxazin-3-one] | 32 µg/mL (≈ 67.9 µM) | > 32 µg/mL | > 32 µg/mL | –
8 | O=C1COc2ccc(Cl)cc2N1CC(O)(Cn1cncn1)c1ccc(Br)cc1 (stereo not shown) [Compound 1n, 4-[2-(4-Bromophenyl)-2-hydroxy-3-[1,2,4]-triazol-1-yl-propyl]-6-chloro-4H-benzo[1,4]oxazin-3-one] | 4 µg/mL (≈ 8.63 µM) | > 16 µg/mL | > 16 µg/mL | –
9 | O=c1oc2ccccc2n1CC(O)(Cn1cncn1)c1ccc(F)cc1F (stereo not shown) [Compound 1q, 3-[2-(2,4-Difluorophenyl)-2-hydroxy-3-[1,2,4]triazol-1-yl-propyl]-3H-benzoxazolin-2-one] | 2 µg/mL (≈ 5.37 µM) | > 128 µg/mL | > 128 µg/mL | –
10 | COc1ccc2c(c1)SCC(=O)N2CC(O)(Cn1cncn1)c1ccc(F)cc1F (stereo not shown) [Compound 1d, 4-[2-(2,4-Difluorophenyl)-2-hydroxy-3-[1,2,4]triazol-1-yl-propyl]-7-methoxy-4H-benzo[1,4]thiazin-3-one] | 4 µg/mL (≈ 9.25 µM) | > 32 µg/mL | > 32 µg/mL | –
11 | O=C1COc2ccc(Br)cc2N1CC(O)(Cn1cncn1)c1ccc(F)cc1F (stereo not shown) [Compound 1k, 6-Bromo-4-[2-(2,4-difluorophenyl)-2-hydroxy-3-[1,2,4]triazol-1-yl-propyl]-4H-benzo[1,4]oxazin-3-one] | 16 µg/mL (≈ 34.4 µM) | > 32 µg/mL | > 32 µg/mL | –
12 | O=C1COc2ccccc2N1CC(O)(Cn1cncn1)c1ccc(F)cc1F (stereo not shown) [Compound 1i, 4-[2-(2,4-Difluorophenyl)-2-hydroxy-3-[1,2,4]-triazol-1-yl-propyl]-4H-benzo[1,4]oxazin-3-one] | 0.5 µg/mL (≈ 1.29 µM) | > 64 µg/mL | > 64 µg/mL | MIC (C. albicans ATCC24433): 0.12 µg/mL (≈ 0.311 µM); MIC (C. albicans ATCC10231): 0.5 µg/mL (≈ 1.29 µM); MIC (C. albicans ATCC2091): 4 µg/mL (≈ 10.4 µM); MIC (C. albicans ATCC90028): 0.12 µg/mL (≈ 0.311 µM); MIC (C. glabrata ATCC90030): 0.25 µg/mL (≈ 0.647 µM); MIC (C. krusei ATCC6258): 16 µg/mL (≈ 41.4 µM); MIC (C. tropicalis ATCC750): 2 µg/mL (≈ 5.18 µM)
13 | O=C1CSc2ccccc2N1CC(O)(Cn1cncn1)c1ccc(F)cc1F (stereo not shown) [Compound 1a, 4-[2-(2,4-Difluorophenyl)-2-hydroxy-3-[1,2,4]triazol-1-yl-propyl]-4H-benzo[1,4]thiazin-3-one] | 0.25 µg/mL (≈ 0.621 µM) | > 64 µg/mL | > 64 µg/mL | MIC (C. albicans ATCC24433): 0.03 µg/mL (≈ 0.0745 µM); MIC (C. albicans ATCC10231): 0.12 µg/mL (≈ 0.298 µM); MIC (C. albicans ATCC2091): 2 µg/mL (≈ 4.97 µM); MIC (C. albicans ATCC90028): 0.03 µg/mL (≈ 0.0745 µM); MIC (C. glabrata ATCC90030): 0.06 µg/mL (≈ 0.149 µM); MIC (C. krusei ATCC6258): 4 µg/mL (≈ 9.94 µM); MIC (C. tropicalis ATCC750): 0.5 µg/mL (≈ 1.24 µM)
14 | O=C1CSc2cc(Cl)ccc2N1CC(O)(Cn1cncn1)c1ccc(F)cc1 (stereo not shown) [Compound 1f, 7-Chloro-4-[2-(4-fluorophenyl)-2-hydroxy-3-[1,2,4]-triazol-1-yl-propyl]-4H-benzo[1,4]thiazin-3-one] | 2 µg/mL (≈ 4.77 µM) | > 16 µg/mL | > 16 µg/mL | –
15 | OC(Cn1cncn1)(Cn1cncn1)c1ccc(F)cc1F [Fluconazole, reference compound] | 1 µg/mL (≈ 3.27 µM) | 128 µg/mL (≈ 418 µM) | > 128 µg/mL | MIC (C. albicans ATCC24433): 0.25 µg/mL (≈ 0.816 µM); MIC (C. albicans ATCC10231): 1 µg/mL (≈ 3.27 µM); MIC (C. albicans ATCC2091): 4 µg/mL (≈ 13.1 µM); MIC (C. albicans ATCC90028): 0.5 µg/mL (≈ 1.63 µM); MIC (C. glabrata ATCC90030): 4 µg/mL (≈ 13.1 µM); MIC (C. krusei ATCC6258): 64 µg/mL (≈ 209 µM); MIC (C. tropicalis ATCC750): 2 µg/mL (≈ 6.53 µM)
16 | COc1ccc2c(c1)SCC(=O)N2CC(O)(Cn1cncn1)c1ccc(Br)cc1 (stereo not shown) [Compound 1g, 4-[2-(4-Bromophenyl)-2-hydroxy-3-[1,2,4]triazol-1-yl-propyl]-7-methoxy-4H-benzo[1,4]thiazin-3-one] | 2 µg/mL (≈ 4.21 µM) | > 16 µg/mL | > 16 µg/mL | –
17 | O=C1CSc2cc(Cl)ccc2N1CC(O)(Cn1cncn1)c1ccc(F)cc1F (stereo not shown) [Compound 1b, 7-Chloro-4-[2-(2,4-difluorophenyl)-2-hydroxy-3-[1,2,4]-triazol-1-yl-propyl]-4H-benzo[1,4]thiazin-3-one] | 1 µg/mL (≈ 2.29 µM) | > 16 µg/mL | > 16 µg/mL | –
18 | C[C@@H]1[C@H](O)[C@@H](C)/C=C/C=C/C=C/C=C/C=C/C=C/C=C/[C@H](O[C@@H]2O[C@H](C)[C@@H](O)[C@H](N)[C@@H]2O)C[C@@H]2O[C@](O)(C[C@@H](O)C[C@@H](O)[C@H](O)CC[C@@H](O)C[C@@H](O)CC(=O)O[C@H]1C)C[C@H](O)[C@H]2C(=O)O [Amphotericin B, reference compound] | – | – | – | MIC C. albicans ATCC24433 (C. albicans ATCC 24433; [2]): 0.25 µg/mL (≈ 0.271 µM); MIC A. niger ATCC 16404 (A. niger ATCC 16404; [2]): 1 µg/mL (≈ 1.08 µM); MIC F. proliferatum ATCC 10052 [1, 2]: 2 µg/mL (≈ 2.16 µM); MIC C. albicans ATCC24433 (C. albicans ATCC24433; [3]): 0.25 µg/mL (≈ 0.271 µM); MIC C. albicans ATCC10231 (C. albicans ATCC10231; [3]): 0.5 µg/mL (≈ 0.541 µM); MIC C. albicans ATCC2091 (C. albicans ATCC2091; [3]): 0.5 µg/mL (≈ 0.541 µM); MIC C. albicans ATCC90028 (C. albicans ATCC90028; [3]): 0.5 µg/mL (≈ 0.541 µM); MIC C. glabrata ATCC90030 (C. glabrata ATCC90030; [3]): 0.25 µg/mL (≈ 0.271 µM); MIC C. krusei ATCC6258 (C. krusei ATCC6258; [3]): 0.5 µg/mL (≈ 0.541 µM); MIC C. tropicalis ATCC750 (C. tropicalis ATCC750; [3]): 0.5 µg/mL (≈ 0.541 µM)
